Test results from patent publication US5442064A, “Carboxylic acid derivatives, pharmaceutical compositions containing these compounds and processes for preparing them” (Dr. Karl Thomae GmbH, priority 1992, dated 1995).
Where a name gives a salt, the structure may show the parent alone.

Tests used:
platelet aggregation = test: Inhibition of platelet aggregation (collagen-induced, Born and Cross, platelet-rich plasma of healthy volunteers); assay type: cell-based; conditions: 10 minutes preincubation at 37° C
Description: In order to do this, donor blood is taken from an anticubital vein and anticoagulated with trisodium citrate (final concentration 13 mM). The blood is centrifuged for 10 minutes at 170×g and the supernatant platelet-rich plasma (PRP) is removed. The remaining blood is vigorously centrifuged once more in order to obtain plasma. The PRP is diluted 1:10 with autologous plasma. 750 μl are incubated with 50 μl of physiological saline solution, 100 μl of test substance solution, 50 μl of ^14 C-sucrose (3,700 Bq) and 50 μl of ^3 H-BIBU 52 (final concentration: 5 nM) at ambient temperature for 20 minutes. In order to measure the non-specific binding, 5μl of BIBU 52 (final concentration: 30 μM) are used instead of the test substance. The samples are centrifuged for 20 seconds at 10,000×g and the supernatant is poured off. 100 μl thereof are measured in order to determine the free ligand. The pellet is dissolved in 500 μl of 0.2N NaOH, 450 μl are mixed with 2 ml of scintillator and 25 μl of 5N HCl and measured. The residual plasma remaining in the pellet is determined from the ^14 C-content and the bound ligand is determined from the ^3 H-measurement. After the non-specific binding has been deducted, the pellet activity is plotted against the concentration of the test substance and the concentration for 50% inhibition of binding is determined. 2. Antithrombotic activity The thrombocyte aggregation is measured using the method of Born and Cross (J. Physiol. 170: 397 (1964)) in platelet-rich plasma taken from healthy volunteers. To inhibit coagulation the blood is mixed with 3.14% sodium citrate in a volume ratio of 1:10. The pattern of the decrease in optical density of the platelet suspension is photometrically measured and recorded after the addition of the aggregation-triggering substance. The rate of aggregation is determined from the angle of inclination of the density curve. The point on the curve where there is maximum light transmittance is used to calculate the optical density. The concentration of collagen used is as small as possible but sufficient to produce an irreversible reaction curve. Standard commercial collagen produced by Hormonchemie of Munich is used. Before the addition of the collagen the plasma is incubated for 10 minutes with the substance at 37° C. From the concentration/activity curve an EC50 is determined, which describes the concentration giving a 50% change in the optical density in terms of the inhibition of aggregation.

human thrombocytes = test: Competitive binding of ^3 H-BIBU 52/test substance to human thrombocytes; conditions: human thrombocytes in plasma; ^3 H-BIBU 52 5 nM; ambient temperature, 20 minutes
Description: 1. Competitive binding of ^3 H-BIBU 52/test substance to human thrombocytes: […] Case 5/1093-FL), which replaces the ^125 I fibrinogen ligand known from the literature and various concentrations of the substance to be tested. The free and bound ligand is separated by centrifuging and quantified by scintillation counting. The inhibition of ^3 H-BIBU 52 binding by the test substance is determined from the measurements obtained. In order to do this, donor blood is taken from an anticubital vein and anticoagulated with trisodium citrate (final concentration 13 mM). The blood is centrifuged for 10 minutes at 170×g and the supernatant platelet-rich plasma (PRP) is removed. The remaining blood is vigorously centrifuged once more in order to obtain plasma. The PRP is diluted 1:10 with autologous plasma. 750 μl are incubated with 50 μl of physiological saline solution, 100 μl of test substance solution, 50 μl of ^14 C-sucrose (3,700 Bq) and 50 μl of ^3 H-BIBU 52 (final concentration: 5 nM) at ambient temperature for 20 minutes. In order to measure the non-specific binding, 5μl of BIBU 52 (final concentration: 30 μM) are used instead of the test substance. The samples are centrifuged for 20 seconds at 10,000×g and the supernatant is poured off. 100 μl thereof are measured in order to determine the free ligand. The pellet is dissolved in 500 μl of 0.2N NaOH, 450 μl are mixed with 2 ml of scintillator and 25 μl of 5N HCl and measured. The residual plasma remaining in the pellet is determined from the ^14 C-content and the bound ligand is determined from the ^3 H-measurement. After the non-specific binding has been deducted, the pellet activity is plotted against the concentration of the test substance and the concentration for 50% inhibition of binding is determined. 2. Antithrombotic activity

Row | SMILES | IC50 (human thrombocytes) | EC50 (platelet aggregation; Homo sapiens, Platelet) | EC50 (platelet aggregation; human platelet-rich plasma)
1 | N=C(NC(=O)OCc1ccccc1)c1ccc(N2CCN(C(=O)N[C@H]3CC[C@H](C(=O)O)CC3)CC2)cc1 [3(1), 1-[4-(N-benzyloxycarbonyl-amidino)-phenyl]-4-[N-(trans-4-carboxycyclohexyl)-aminocarbonyl]-piperazine] | 0.23 µM | 0.66 µM | –
2 | N=C(N)c1ccc(N2CCC(C(=O)N(CCCc3ccccc3)[C@H]3CC[C@H](C(=O)O)CC3)CC2)cc1 [3(25), 1-(4-amidinophenyl)-4-[N-(trans-4-carboxycyclohexyl)-N-(3-phenylpropyl)-aminocarbonyl]-piperidine] | 0.004 µM | 0.052 µM | –
3 | N=C(N)c1ccc(N2CCN(C(=O)N(Cc3ccccc3)[C@H]3CC[C@H](C(=O)O)CC3)CC2)cc1 [2(6), 1-(4-amidinophenyl)-4-[N-benzyl-N-(trans-4-carboxycyclohexyl)-aminocarbonyl]-piperazine-dihydrochloride] | 0.0015 µM | 0.04 µM | –
4 | N=C(N)c1ccc(N2CCC(C(=O)N[C@H]3CC[C@H](C(=O)O)CC3)CC2)nc1 [2(2), 1-(5-amidinopyrid-2-yl)-4-[N-(trans-4-carboxycyclohexyl)-aminocarbonyl]-piperidine-dihydrochloride] | 0.047 µM | 0.09 µM | –
5 | COC(=O)[C@H]1CC[C@H](NC(=O)N2CCC(c3ccc(C(=N)N)cc3)CC2)CC1 [1(5), 4-(4-amidinophenyl)-1-[N-[trans-4-(methoxycarbonyl)-cyclohexyl]-aminocarbonyl]-piperidine-hydrochloride] | 1.2 µM | 0.08 µM | –
6 | COC(=O)[C@H]1CC[C@H](N(C)C(=O)N2CCN(c3ccc(C(=N)N)cn3)CC2)CC1 [1(9), 1-(5-amidinopyrid-2-yl)-4-[N-[trans-4-(methoxycarbonyl)-cyclohexyl]-N-methyl-aminocarbonyl]-piperazine-hydrochloride] | 17 µM | 0.09 µM | –
7 | NCc1ccc(C2CCN(C(=O)N[C@H]3CC[C@H](C(=O)O)CC3)CC2)cc1 [2(11), 4-(4-aminomethylphenyl)-1-[N-(trans-4-carboxycyclohexyl)-aminocarbonyl]-piperidine-hydrochloride] | 0.23 µM | 0.38 µM | –
8 | N=C(N)c1ccc(C2CCN(C(=O)N[C@H]3CC[C@H](C(=O)O)CC3)CC2)cc1 [2(3), 4-(4-amidinophenyl)-1-[N-(trans-4-carboxycyclohexyl)-aminocarbonyl]-piperidine-hydrochloride] | 0.0045 µM | – | 0.03 µM
9 | NCc1ccc(N2CCC(C(=O)N[C@H]3CC[C@H](C(=O)O)CC3)CC2)cc1 [3(17), 1-(4-aminomethylphenyl)-4-[N-(trans-4-carboxycyclo-hexyl)-aminocarbonyl]-piperidine-hydrochloride] | 0.074 µM | 0.18 µM | –
10 | N=C(N)c1ccc(N2CCC(C(=O)N(CCc3ccccc3)[C@H]3CC[C@H](C(=O)O)CC3)CC2)cc1 [3(24), 1-(4-amidinophenyl)-4-[N-(trans-4-carboxycyclohexyl)-N-(2-phenylethyl)-aminocarbonyl]-piperidine] | 0.0091 µM | 0.11 µM | –
11 | NCc1ccc(N2CCN(C(=O)N[C@H]3CC[C@H](C(=O)O)CC3)CC2)nc1 [2(22), 1-(5-aminomethylpyrid-2-yl)-4-[N-(trans-4-carboxycyclohexyl)-aminocarbonyl]-piperazine-dihydrochloride] | 0.31 µM | 0.68 µM | –
12 | COC(=O)[C@H]1CC[C@H](NC(=O)N2CCN(c3ccc(CN)cc3)CC2)CC1 [Example 4, 1-(4-Aminomethylphenyl)-4-[N-[trans-4-(methoxycarbonyl)-cyclohexyl]-aminocarbonyl]-piperazine-hydrochloride] | 5.3 µM | 4.3 µM | –

Further lines, with some results ahead:

Row | IC50 (human thrombocytes) | SMILES | EC50 (platelet aggregation; Homo sapiens, Platelet) | EC50 (platelet aggregation; human platelet-rich plasma)
13 | 0.87 µM | COC(=O)[C@H]1CC[C@H](N(C)C(=O)N2CCN(c3ccc(C(=N)N)cc3)CC2)CC1 [1(1), 1-(4-amidinophenyl)-4-[N-[trans-4-(methoxycarbonyl)-cyclohexyl]-N-methyl-aminocarbonyl]-piperazine-hydrochloride] | 0.11 µM | –
14 | 0.044 µM | N=C(N)c1ccc(N2CCN(C(=O)N3CCC(CC(=O)O)CC3)CC2)cc1 [2(17), 1-(4-amidinophenyl)-4-[4-(carboxymethyl)-piperidinocarbonyl]-piperazine-dihydrochloride] | 0.13 µM | –
15 | 0.54 µM | CCOC(=O)[C@H]1CC[C@H](NC(=O)N2CCN(c3ccc(C(=N)N)cc3)CC2)CC1 [Example 8, 1-(4-Amidinophenyl)-4-[N-[trans-4-(ethoxycarbonyl)-cyclohexyl]-aminocarbonyl]-piperazine-dihydrochloride] | 0.19 µM | –
16 | 0.1 µM | N=C(N)c1ccc(N2CCC(C(=O)N3CCC(CC(=O)O)CC3)CC2)nc1 [2(42), 1-(5-amidinopyrid-2-yl)-4-[4-(carboxymethyl)-piperidinocarbonyl]-piperidine-dihydrochloride] | 0.17 µM | –
17 | 0.012 µM | CCCCCN(C(=O)C1CCN(c2ccc(C(=N)N)cc2)CC1)[C@H]1CC[C@H](C(=O)O)CC1 [3(26), 1-(4-amidinophenyl)-4-[N-(trans-4-carboxycyclohexyl)-N-(n-pentyl)-aminocarbonyl]-piperidine] | 0.065 µM | –
18 | 0.018 µM | CN(C(=O)N1CCN(c2ccc(C(=N)N)cc2)CC1)[C@H]1CC[C@H](C(=O)O)CC1 [2(1), 1-(4-amidinophenyl)-4-[N-(trans-4-carboxycyclohexyl)-N-methyl-aminocarbonyl]-piperazine-dihydrochloride] | 0.04 µM | –
19 | 0.0057 µM | N=C(N)c1ccc(N2CCC(C(=O)N[C@H]3CC[C@H](C(=O)O)CC3)CC2)cc1 [3(15), 1-(4-amidinophenyl)-4-[N-(trans-4-carboxycyclo-hexyl)-aminocarbonyl]-piperidine] | 0.03 µM | –
20 | 30 µM | COC(=O)CC1CCN(C(=O)N2CCN(c3ccc(C(=N)N)cc3)CC2)CC1 [1(25), 1-(4-amidinophenyl)-4-[4-(methoxycarbonylmethyl)-piperidinocarbonyl]-piperazine-hydrochloride] | 6.8 µM | –
21 | 0.014 µM | N=C(N)c1ccc(C2CCN(C(=O)N[C@H]3CC[C@H](C(=O)O)CC3)CC2)cc1 [3(2), 4-(4-amidinophenyl)-1-[N-(trans-4-carboxycyclohexyl)-aminocarbonyl]-piperidine] | – | 0.1 µM
22 | 0.18 µM | N=C(N)c1ccc(N2CCC(CC(=O)NCCC(=O)O)CC2)cc1 [3(12), 1-(4-amidinophenyl) -4-[N-(2-carboxyethyl)-amino-carbonylmethyl]-piperidine] | 0.29 µM | –
23 | 1.2 µM | CC(C)OC(=O)[C@H]1CC[C@H](NC(=O)N2CCN(c3ccc(C(=N)N)cc3)CC2)CC1 [Example 7, 1-(4-Amidinophenyl)-4-[N-[trans-4-(isopropoxycarbonyl)-cyclohexyl]-aminocarbonyl]-piperazine-dihydrochloride] | 0.28 µM | –
24 | 0.078 µM | N=C(N)c1ccc(N2CCC(C(=O)N3CCC(CC(=O)O)CC3)CC2)cc1 [3(4), 1-(4-amidinophenyl)-4-[4-(carboxymethyl)-piperidino-carbonyl]-piperidine] | 0.1 µM | –
